Measurements taken from patent US4415574A, “Soluble N2 substituted derivatives of 2,4-diamino 5-benzyl pyrimidine, process for their preparation and medicaments containing them” (S. A. Panmedica, priority 1981, dated 1983).
Where two headings read alike, the source gives them in different places.

How the values were obtained:
BACIL PUMILUS = experiment: Inhibiting minimum concentration (I.M.C.), activity relative to trimethoprime, MULLER HINTON BACIL PUMILUS MEDIUM; format: cell-based; details: for % activity with respect to the base: ratio of I.M.C. to trimethoprime; for % activity with respect to the base corrected by molecular weight: ratio to trimethoprime
Description: (§1) The antibacterial activity of the derivatives according to the invention were tested in vitro by determining the inhibiting minimum concentrations (I.M.C.) on different germs.

COLI [1] = experiment: Inhibiting minimum concentration (I.M.C.), activity relative to trimethoprime, OXOIDE COLI MEDIUM 4; format: cell-based; details: for % activity with respect to the base: ratio of I.M.C. to trimethoprime; for % activity with respect to the base corrected by molecular weight: ratio to trimethoprime
Description: as §1

in vivo = details: mouse
COLI [2] = experiment: Inhibiting minimum concentration (I.M.C.), activity relative to trimethoprime, MULLER HINTON COLI MEDIUM 4; format: cell-based; details: for % activity with respect to the base: ratio of I.M.C. to trimethoprime; for % activity to the base corrected by molecular weight: ratio to trimethoprime
Description: as §1

[3] = Solubility in water / pH of aqueous solutions; format: physicochemical; details: pH value
dehydrofolate-reductase = details: cited from earlier work
bacteria = details: Gram-positive cocci, Gram-negative cocci and Gram negative bacilli; cited from earlier work

In the case of `COc1cc(Cc2cnc(NC(c3ccc4c(c3)OCO4)S(=O)(=O)O)nc2N)cc(OC)c1OC` (centres unmarked) [Example 18, N2 (3,4-Dioxy Methylene Phenyl) Methane Sulfonic Acid of 2,4-Diamino 5-(3,4,5-Trimethoxy Benzyl) Pyrimidine], the “% activity with respect to the base” value (BACIL PUMILUS) is reported as 21.4%, the “% activity with respect to the base corrected by molecular weight” value (BACIL PUMILUS) is reported as 38% and the “% activity with respect to the base” value (COLI [1]) is reported as 27%. The “% activity with respect to the base corrected by molecular weight” value (COLI [1]) was 48%, the LD50 (in vivo; po, read-out: LD 50 by mouth) was greater than 12000 mg/kg and the “% activity with respect to the base” value (COLI [2]) was 14.85%. The “% activity to the base corrected by molecular weight” value (“% activity to the base corrected” below) (COLI [2]) was 26%.

In the case of `COc1cc(Cc2cnc(NC(c3ccco3)S(=O)(=O)O)nc2N)cc(OC)c1OC` (centres unmarked) [Example 19], the “% activity with respect to the base” value (BACIL PUMILUS) is reported as 49.5%, the “% activity with respect to the base corrected by molecular weight” value (BACIL PUMILUS) is reported as 80% and the “% activity with respect to the base” value (COLI [1]) is reported as 58.4%. The “% activity with respect to the base corrected by molecular weight” value (COLI [1]) was 95%, the LD50 (in vivo; iv, read-out: LD 50 I.V.) was 900 mg/kg and the LD50 (in vivo; po, read-out: LD 50 by mouth) was greater than 12500 mg/kg. The “% activity with respect to the base” value (COLI [2]) was 69.4% and the “% activity to the base corrected” value (COLI [2]) was 112%.

With `COc1cc(Cc2cnc(NC(c3ccccn3)S(=O)(=O)O)nc2N)cc(OC)c1OC` (centres unmarked) [Example 22, N2 2-Pyridyl Methane Sulfonic Acid of 5-(3,4,5-Trimethoxy Benzyl) 2,4-Diamino Pyrimidine] the “pH at which the derivative is insoluble” value [3] was 5.6.

In the case of `CCOc1cc(C(Nc2ncc(Cc3cc(OC)c(OC)c(OC)c3)c(N)n2)S(=O)(=O)O)ccc1O` (centres unmarked) [Example 24f, N2 (3-Ethoxy 4-Hydroxy) Phenyl Methane Sulfonic Acid of 5-(3,4,5-Trimethoxy Benzyl) 2,4-Diamino Pyrimidine], the “% activity with respect to the base” value (BACIL PUMILUS) is reported as 31.8%, the “% activity with respect to the base corrected by molecular weight” value (BACIL PUMILUS) is reported as 73% and the “% activity with respect to the base” value (COLI [1]) is reported as 27.4%. The “% activity with respect to the base corrected by molecular weight” value (COLI [1]) was 63%, the LD50 (in vivo; iv, read-out: LD 50 I.V.) was 1000 mg/kg and the LD50 (in vivo; po, read-out: LD 50 by mouth) was greater than 12000 mg/kg. For the same molecule, the “% activity with respect to the base” value (COLI [2]) was 40.3% and the “% activity to the base corrected” value (COLI [2]) was 92%.

In the case of `COc1cc(Cc2cnc(N)nc2N)cc(OC)c1OC` [Trimethoprime, 5-(3,4,5-trimethoxybenzyl) 2,4diamino pyrimidine], the “interference with dehydrofolate-reductase (words, prior art)” value (dehydrofolate-reductase) is listed as “interferes with dehydrofolate-reductase” and the “antibacterial activity (words, prior art)” value (bacteria) is listed as “very wide-spectrum antibacterial agent”.
